From patent publication US10945989B2, “Perinatal treatment with a flavonoid agonist of the TrkB receptor for BDNF rescues neurogenesis and behavior in the Ts65Dn mouse model of DS” (ALMA MATER STUDIORUM—Universita' di Bologna, priority 2017, dated 2021)

Assays:
Format in all cases: in vivo, mouse
[1] = system: proliferating cells in the SGZ; assay: Prenatal treatment: BrdU-positive cells in the SGZ of P2 mice
Procedure: (§1) Conception was determined by examining the vaginal plug. […] After sacrifice, brain was excised and weighed.
(§2) One of 20 sections (n=8-10) from the beginning to the end of the hippocampal formation were subjected to double-fluorescence immunohistochemistry for BrdU and NeuN. Sections were incubated overnight at 4° C. with a primary antibody, rat monoclonal anti-BrdU antibody (AbD Serotec), diluted 1:100 in 0.1% Triton X-100 in PBS and either mouse monoclonal anti-NeuN (Millipore Bioscience Research Reagents) diluted 1:400 in 0.1% Triton X-100 in PBS. Sections were then washed in 0.1% Triton X-100 in PBS for 40 min and incubated for 2 h with a Cy3-conjugated anti-rat IgG (1:200; Jackson Immunoresearch) secondary fluorescent antibody for BrdU immunohistochemistry and FITC-conjugated anti-mouse IgG (1:200; Jackson Immunoresearch) for NeuN immunohistochemistry.
(§3) BrdU-positive cells were sampled in the caudal subventricular zone (SVZ) of the lateral ventricle overlying the dentate gyrus and from the subgranular zone (SGZ) of the dentate gyrus (FIG. 10A). The caudal SVZ is the region that stretches from the beginning to the end of the hippocampal formation (BC: 3.27-4.84 mm). Since different regions of the ventricular zone (VZ) and SVZ give origin to neurons destined to different telecephalic areas (Brazel et al., 2003), we evaluated the effects of treatment both in the dorsal and lateral part of the SVZ (FIG. 10B). For cell counting, an area was traced enclosing the whole SVZ and all cells in this area were counted. While at later life stages, neural progenitor cells are only present in the SGZ of the dentate gyrus, in P2 pups proliferating cells can be detected in the perspective molecular layer and hilus. Therefore, cells were counted within a manually-traced area enclosing the whole dentate gyrus (FIG. 10B). […] Quantification of BrdU-labeled nuclei was conducted in every 20th section. The total number of BrdU labeled cells in the SVZ and SGZ was estimated by multiplying the number counted in the sampled sections by the inverse of the section sampling fraction (ssf= 1/20).

[2] = system: proliferating cells in the SVZ; assay: Prenatal treatment: BrdU-positive cells in the SVZ of P2 mice
Procedure: as §1, §2, §3

[3] = Body and brain weight, neonatal treatment (P15, P45)
Procedure: Euploid and Ts65Dn mice received a daily subcutaneous injection (at 9-10 am) of 7,8-DHF (5.0 mg/kg in vehicle: PBS with 1% DMSO) or vehicle from postnatal day 3 (P3) to postnatal day 15. This timing was chosen because it corresponds to that previously used to test the effects of fluoxetine and other pharmacotherapies in the neonate Ts65Dn mouse (Bianchi et al., 2010b; Giacomini et al., 2015; Stagni et al., 2016). Mice that received 7,8-DHF will be called “treated mice” (treated euploid mice: n=25; treated Ts65Dn mice: n=15). Mice that received the vehicle will be called “untreated mice” (untreated euploid mice: n=35; untreated Ts65Dn mice: n=21). […] The brains were excised and cut along the midline. The left hemisphere of a group of mice was fixed by immersion in PFA 4% and frozen, and the left hemisphere of another group of mice was used for Golgi staining. The right hemispheres of all mice was kept at −80° C. and used for western blotting.
Euploid and Ts65Dn mice received a daily subcutaneous injection (at 9-10 am) of 7,8-DHF (5.0 mg/kg in vehicle) or vehicle from postnatal day 3 (P3) to postnatal day P45-P50. […] These mice will be called here P45 mice. Mice were behaviorally tested in the 6 days that preceded the day of sacrifice (FIG. 2B).
The body weight of mice of all groups was recorded prior to sacrifice and the brain weight was recorded immediately after brain removal. The number of animals used for each experimental procedure is specified in the figure legends and in Table 3.

[4] = P2 Ts65Dn mice, treated E10-E20/21
[5] = P15 Ts65Dn mice, 5.0 mg/kg s.c. daily P3-P15
[6] = P45 Ts65Dn mice, 5.0 mg/kg s.c. daily P3-P45

Q: With `O=c1cc(-c2ccccc2)oc2c(O)c(O)ccc12` [7,8-DHF, 7,8-dihydroxyflavone] as the compound, how does the “total number of BrdU-positive cells in the SGZ, treated Ts65Dn vs untreated euploid mice” value ([1]; P2, treated E10-E20/21) read?
A: The value was “no differences in total number of BrdU-positive cells”.

Q: What about the “total number of BrdU-positive cells in the SGZ” value ([1]; P2 Ts65Dn mice, dams 5 mg/kg s.c. E10-E20/21, untreated Ts65Dn approx. 12850, euploid approx. 17500) of the same compound?
A: The value was “approximately 16800”.

Q: What about the “increase in cell number in the SGZ vs untreated Ts65Dn” value [1, 4] of the same compound?
A: The value was “+30%”.

Q: And the “total number of BrdU-positive cells in the SVZ, treated Ts65Dn vs untreated euploid mice” value ([2]; P2, treated E10-E20/21)?
A: The value was “no differences in total number of BrdU-positive cells”.

Q: What about the “total number of BrdU-positive cells in the SVZ” value ([2]; P2 Ts65Dn mice, dams 5 mg/kg s.c. E10-E20/21, untreated Ts65Dn approx. 22500, euploid approx. 32300) of the same compound?
A: Its value is “approximately 33900”.

Q: What about the “increase in cell number in the SVZ vs untreated Ts65Dn” value [2, 4] of the same compound?
A: The value was “+50%”.

Q: And the body weight [3, 5]?
A: Its body weight is “did not further reduce the body weight”.

Q: What about the brain weight [3, 5] of the same compound?
A: The brain weight was “did not cause a further brain weight reduction”.

Q: What about the brain weight ([3]; P15 euploid mice, 5.0 mg/kg s.c. daily P3-P15, vs untreated) of the same compound?
A: The brain weight was “slight but significant brain weight reduction”.

Q: What about the body weight [3, 6] of the same compound?
A: The body weight was “did not further reduce their body weight”.

Q: And the “brain weight (reduction vs untreated euploid mice)” value [3, 6]?
A: Its value is “this difference disappeared”.

Q: And the body weight ([3]; P45 euploid mice, 5.0 mg/kg s.c. daily P3-P45, vs untreated)?
A: The body weight was “body weight reduction”.
